# Laboratory results published in patent US4260682A, “High sensitivity assays for angiotensin converting enzyme” (priority 1979, dated 1981).
# Peptide text beside a SMILES is read from it. * marks the point of attachment. Bz = O=C(c1ccccc1)*
# Assays:
# [1] = test system: enzyme isolated from hog lung (ACE); conditions: cited from earlier work
# [2] = test system: ACE; experiment: Sulfate and chloride effects on ACE catalysed hydrolysis (general description); type: biochemical
# Description: An assay for ACE, using HipHisLeu as substrate, is herewith described. The assay is more sensitive than any heretofore disclosed using HipHisLeu as substrate. Maximum sensitivity is achieved by the inclusion of sulfate ions, preferably as sodium sulfate, in the reaction mixture. When 0.1 M NaCl is present in the reaction mixture, sulfate ions are stimulatory from 0.1 M to at least 1.1 M. Maximum stimulation occurs in the range from 0.75 M to 1.1 M Na2 SO4.
# (§1) An even more sensitive assay for ACE activity has been developed using the novel compound ^3 H-benzoylPheAlaPro as substrate. This new substrate can be used to assay ACE in human urine in incubations as short as 15 minutes. The response of this substrate to ions is strikingly different from the response of HipHisLeu. […] This difficulty has been solved by the proper choice of extracting solvent. While a variety of organic solvents may be suitable for the extraction step, it is preferred to employ toluene. Approximately 88% of ^3 H-benzoylPhe enters the toluene phase while only 6% of the unhydrolyzed substrate enters the toluene phase, when toluene and the acidified reaction mixture are in approximately equal volumes at room temperatures.
# (§2) The enzyme is active over a broad pH range with a maximum around pH 8.0, but is at least about 50% active in the range pH 7.0-pH 8.8, for both HipHisLeu and benzoylPheAlaPro. Although the enzyme is active in a variety of buffer systems known in the art, it is preferred for convenience, when using benzoylPheAlaPro as substrate, to conduct the assays in 0.05 M Hepes buffer, pH 8.0 containing 0.15 M sodium chloride. Detailed protocols for carrying out the assay are given in the examples. […] The preferred concentration range is 1×10^-9 M to 7×10^- 5 M.
# [3] = test system: ACE from rabbit lung; conditions: HipHisLeu as substrate; cited from earlier work
# [4] = Extraction from the acidified reaction mixture into organic solvent; type: physicochemical; conditions: toluene and acidified reaction mixture in approximately equal volumes, room temperature
# Description: as §1
# [5] = target: ACE (Homo sapiens, UniProt P12821); experiment: Comparison of sensitivity of ACE radioassays; type: biochemical
# Description: A comparison of the sensitivity of the disclosed assay methods with each other and with prior art assays may be made by considering assays which depend upon measuring the radioactivity of the remnant reaction product. A prior art assay of this type, using ^3 H-HipGlyGly as substrate has been described (Ryan and Chung, supra). Of the two assays disclosed herein, the sulfate stimulated hydrolysis of ^3 H-HipHisLeu is approximately 20 times more sensitive, and the ^3 H-benzoylPheAlaPro assay is about 10 times more sensitive still. The latter is therefore approximately 200 times more sensitive than the assay using ^3 H-HipGlyGly.
# [6] = test system: ACE; experiment: pH dependence of ACE activity; type: biochemical
# Description: as §2
# [7] = target: T1, Guinea pig urinary ACE (Cavia porcellus, UniProt H0UWL7); experiment: Sulfate and chloride effects on ACE catalysed substrate hydrolysis; type: biochemical; conditions: 0.05 Hepes, pH 8.0, 0.15M HCl
# T1 sequence (H0UWL7 33-1302): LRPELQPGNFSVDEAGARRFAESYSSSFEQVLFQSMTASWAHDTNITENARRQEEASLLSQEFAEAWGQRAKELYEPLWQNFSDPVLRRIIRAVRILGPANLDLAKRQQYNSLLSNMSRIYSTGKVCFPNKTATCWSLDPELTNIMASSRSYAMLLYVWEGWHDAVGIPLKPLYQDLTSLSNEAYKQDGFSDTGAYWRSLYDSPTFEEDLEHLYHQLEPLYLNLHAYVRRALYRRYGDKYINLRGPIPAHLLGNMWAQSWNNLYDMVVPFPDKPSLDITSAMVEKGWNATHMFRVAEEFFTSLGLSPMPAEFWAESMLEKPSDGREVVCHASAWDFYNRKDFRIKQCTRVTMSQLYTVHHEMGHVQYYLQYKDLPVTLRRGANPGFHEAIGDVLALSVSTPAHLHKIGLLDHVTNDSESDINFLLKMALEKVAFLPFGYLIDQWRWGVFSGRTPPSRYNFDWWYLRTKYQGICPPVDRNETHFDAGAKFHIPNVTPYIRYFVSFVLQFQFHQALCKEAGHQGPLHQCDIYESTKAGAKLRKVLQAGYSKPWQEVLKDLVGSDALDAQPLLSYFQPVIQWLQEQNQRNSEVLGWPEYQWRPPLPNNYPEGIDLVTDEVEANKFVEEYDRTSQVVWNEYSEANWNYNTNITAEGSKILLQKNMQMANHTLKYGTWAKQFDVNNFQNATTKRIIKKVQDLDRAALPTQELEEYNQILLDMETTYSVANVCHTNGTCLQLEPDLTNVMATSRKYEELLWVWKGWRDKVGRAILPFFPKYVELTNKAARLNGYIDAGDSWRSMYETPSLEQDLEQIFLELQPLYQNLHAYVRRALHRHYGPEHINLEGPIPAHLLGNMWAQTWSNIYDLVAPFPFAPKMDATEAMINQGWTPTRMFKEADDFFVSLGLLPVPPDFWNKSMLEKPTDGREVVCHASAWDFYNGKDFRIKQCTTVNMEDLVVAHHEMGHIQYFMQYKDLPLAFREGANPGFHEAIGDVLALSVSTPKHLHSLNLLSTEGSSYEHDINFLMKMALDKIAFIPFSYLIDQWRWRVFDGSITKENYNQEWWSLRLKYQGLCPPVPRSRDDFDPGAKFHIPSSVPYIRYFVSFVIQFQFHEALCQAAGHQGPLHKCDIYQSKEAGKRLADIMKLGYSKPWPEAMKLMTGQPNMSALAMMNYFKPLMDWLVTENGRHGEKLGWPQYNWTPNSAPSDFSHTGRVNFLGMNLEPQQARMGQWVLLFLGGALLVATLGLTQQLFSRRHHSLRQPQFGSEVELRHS
# [8] = target: T2, Guinea pig serum ACE (Cavia porcellus, UniProt H0UWL7); experiment: Kinetics of benzoyl-Phe-Ala-Pro hydrolysis; conditions: for V (reaction velocity): 0.05 M Hepes, pH 8.0, 0.15 M NaCl, 37° C., serum 1:1000
# T2 sequence (H0UWL7 33-1234): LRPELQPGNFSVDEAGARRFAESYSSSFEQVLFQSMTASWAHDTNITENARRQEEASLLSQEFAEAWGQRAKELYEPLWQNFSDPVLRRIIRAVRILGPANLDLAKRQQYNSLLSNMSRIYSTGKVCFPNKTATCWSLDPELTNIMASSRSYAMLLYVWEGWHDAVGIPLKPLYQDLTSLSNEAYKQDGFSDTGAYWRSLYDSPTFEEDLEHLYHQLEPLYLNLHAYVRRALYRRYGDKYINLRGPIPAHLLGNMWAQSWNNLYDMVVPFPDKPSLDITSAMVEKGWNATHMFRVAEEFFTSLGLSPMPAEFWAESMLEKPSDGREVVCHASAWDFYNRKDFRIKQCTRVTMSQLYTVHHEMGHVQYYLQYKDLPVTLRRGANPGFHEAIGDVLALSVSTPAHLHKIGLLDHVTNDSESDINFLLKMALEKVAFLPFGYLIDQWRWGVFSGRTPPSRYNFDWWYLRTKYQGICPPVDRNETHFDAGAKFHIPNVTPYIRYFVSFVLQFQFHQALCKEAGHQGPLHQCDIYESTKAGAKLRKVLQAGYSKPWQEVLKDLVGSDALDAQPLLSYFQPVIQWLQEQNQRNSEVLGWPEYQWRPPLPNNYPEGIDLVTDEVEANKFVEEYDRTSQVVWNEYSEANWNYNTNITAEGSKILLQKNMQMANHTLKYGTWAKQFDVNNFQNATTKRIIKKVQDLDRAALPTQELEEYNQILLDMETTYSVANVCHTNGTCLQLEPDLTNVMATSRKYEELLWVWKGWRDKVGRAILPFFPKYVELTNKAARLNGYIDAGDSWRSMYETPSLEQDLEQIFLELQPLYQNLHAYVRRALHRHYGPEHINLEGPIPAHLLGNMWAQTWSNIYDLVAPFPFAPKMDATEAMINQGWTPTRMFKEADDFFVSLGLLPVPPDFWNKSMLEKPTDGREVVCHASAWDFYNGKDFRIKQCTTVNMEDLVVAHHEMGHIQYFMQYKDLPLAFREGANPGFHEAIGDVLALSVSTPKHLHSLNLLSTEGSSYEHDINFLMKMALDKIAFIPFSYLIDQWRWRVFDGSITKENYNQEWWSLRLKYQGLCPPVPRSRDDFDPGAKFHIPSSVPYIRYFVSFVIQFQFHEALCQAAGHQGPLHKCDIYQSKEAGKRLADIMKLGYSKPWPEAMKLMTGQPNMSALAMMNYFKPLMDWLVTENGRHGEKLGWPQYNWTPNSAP
# Description: Kinetics of Benzoyl-Phe-Ala-Pro Hydrolysis
# The apparent Km for the ACE catalyzed hydrolysis of benzoyl-Phe-Ala-Pro was measured in the following manner. […] Guinea pig serum was diluted 1:1000 to provide the enzyme. A mixture of 50 μl diluted serum and 50 μl of substrate, diluted in the reaction buffer to provide the appropriate substrate concentration for each experiment, was incubated at 37° C. for 10 minutes. At the end of the incubation, 1.0 ml of 0.1 M HCl was added to stop the reaction. The reaction mixture was then extracted with 1.0 ml toluene, and a 0.5 ml aliquot of the toluene phase was counted in a scintillation counter.
# [9] = target: T2, Guinea pig serum ACE; experiment: Kinetics of (sulfate-stimulated) HipHisLeu hydrolysis; type: biochemical; conditions: 0.05 M Hepes, pH 8.0, 0.1 M NaCl, 0.75 M Na2 SO4; Lineweaver and Burke plot
# Description: Kinetics of Sulfate-Stimulated HipHisLeu Hydrolysis
# In each assay, 50 μl of Guinea pig serum diluted 1-20 (v/v) in the reaction buffer was mixed with 50 μl of buffer containing sufficient ^3 H-HipHisLeu to provide approximately 100,000 cpm total, together with sufficient unlabeled HipHisLeu to produce the desired substrate concentrations, as indicated in Table 2. […] The reaction mixture was then extracted with 1 ml ethyl acetate. 500 μl of the ethyl acetate fraction was sampled and counted in a scintillation counter.
# [10] = sulfate ion 0.6 M, 0.1 M chloride, pH 8
# Chain of ACE (Homo sapiens, UniProt P12821) (P12821 30-1306, species assumed): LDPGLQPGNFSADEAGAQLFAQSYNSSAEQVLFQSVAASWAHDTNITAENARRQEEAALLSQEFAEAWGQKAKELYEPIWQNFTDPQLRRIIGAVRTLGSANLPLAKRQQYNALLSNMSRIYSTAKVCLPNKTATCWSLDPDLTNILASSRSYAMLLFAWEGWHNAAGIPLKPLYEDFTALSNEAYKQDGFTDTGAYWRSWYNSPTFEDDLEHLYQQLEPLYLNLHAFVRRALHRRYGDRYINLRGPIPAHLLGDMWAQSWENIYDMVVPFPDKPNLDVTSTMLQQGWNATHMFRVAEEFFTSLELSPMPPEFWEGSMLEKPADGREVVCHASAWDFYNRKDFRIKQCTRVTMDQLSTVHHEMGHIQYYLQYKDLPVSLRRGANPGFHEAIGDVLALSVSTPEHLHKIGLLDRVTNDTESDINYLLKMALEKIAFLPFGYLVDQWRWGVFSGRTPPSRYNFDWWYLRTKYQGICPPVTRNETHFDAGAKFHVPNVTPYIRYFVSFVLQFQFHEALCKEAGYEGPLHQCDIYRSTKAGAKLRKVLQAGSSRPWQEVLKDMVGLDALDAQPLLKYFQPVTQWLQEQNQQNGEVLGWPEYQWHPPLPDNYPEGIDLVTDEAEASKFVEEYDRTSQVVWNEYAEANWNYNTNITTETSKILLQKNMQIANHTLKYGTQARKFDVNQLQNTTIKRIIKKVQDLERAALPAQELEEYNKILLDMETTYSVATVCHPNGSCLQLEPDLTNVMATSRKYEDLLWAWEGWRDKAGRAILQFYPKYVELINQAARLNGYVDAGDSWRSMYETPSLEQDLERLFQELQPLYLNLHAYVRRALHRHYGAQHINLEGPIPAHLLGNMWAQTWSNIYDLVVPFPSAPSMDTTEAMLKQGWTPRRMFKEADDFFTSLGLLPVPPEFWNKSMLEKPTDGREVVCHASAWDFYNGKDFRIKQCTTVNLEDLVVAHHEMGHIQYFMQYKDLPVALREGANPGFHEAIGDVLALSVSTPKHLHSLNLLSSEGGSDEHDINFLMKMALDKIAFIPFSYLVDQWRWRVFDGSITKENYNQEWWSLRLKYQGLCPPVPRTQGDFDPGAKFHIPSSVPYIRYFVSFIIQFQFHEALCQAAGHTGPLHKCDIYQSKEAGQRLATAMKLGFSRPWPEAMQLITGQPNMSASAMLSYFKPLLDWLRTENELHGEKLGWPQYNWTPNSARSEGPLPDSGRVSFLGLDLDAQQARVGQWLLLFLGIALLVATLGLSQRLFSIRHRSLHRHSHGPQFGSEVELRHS
compound,measurement,setting,value
O=C(O)CNC(=O)CNC(=O)CNC(=O)c1ccccc1 [HipGlyGly] (Bz-Gly-Gly-Gly-OH),hydrolysis in the absence of NaCl,[1]; Na2 SO4 0.001 M to 0.6 M,no hydrolysis
same,decrease of Km,[1]; [10],about 15%
same,increase of Vmax,[1]; [10],about 5 fold
same,dependence of hydrolysis on added chloride,[2]; sulfate present,remains dependent upon the presence of added chloride for activity
[Cl-].[Cl-].[Mg+2] [MgCl2],ability to meet the chloride requirement,[3],could be met
"O=S(=O)([O-])[O-].[Na+].[Na+] [Na2 SO4, sodium sulfate]",ability to meet the chloride requirement,[3],not
same,reaction rate vs. buffer containing 0.1 M NaCl and lacking Na2 SO4,"[2]; 0.9 M to 1.2 M Na2 SO4, no added NaCl, 0.05 M Hepes, pH 8.0, HipHisLeu",faster
same,stimulation by sodium sulfate,[2]; ^3 H-benzoylPheAlaPro as substrate,not stimulatory
"[Cl-].[Na+] [NaCl, sodium chloride]",effect of NaCl on reaction velocity of ^3 H-benzoylPheAlaPro,[2]; 0.01 M added NaCl,increases reaction velocity
same,increase of apparent reaction velocity of ^3 H-benzoylPheAlaPro,[2]; 0.05 M added sodium chloride,approximately 3 fold
same,effect on ACE catalyzed hydrolysis of HipHisLeu,[2]; NaCl 0.75 to 1.1 M,seriously inhibits
same,further increase of reaction velocity of ^3 H-benzoylPheAlaPro,"[2]; additional sodium chloride, up to 0.5 M",little further increase
[3H]c1ccc(C(=O)N[C@@H](Cc2ccccc2)C(=O)O)cc1 [^3 H-benzoylPhe],fraction entering the toluene phase,[4],Approximately 88%
"C[C@H](NC(=O)[C@H](Cc1ccccc1)NC(=O)c1ccccc1)C(=O)N1CCC[C@H]1C(=O)O [benzoylPheAlaPro, benzoyl-Phe-Ala-Pro] (Bz-Phe-Ala-Pro-OH)",sensitivity relative to the sulfate-stimulated HipHisLeu assay,[5],ten to twenty
same,pH of maximum activity,[6],~8.0 pH
same,activity of enzyme (relative to maximum),[6]; range pH 7.0-pH 8.8,at least 50%
same,"Reaction Velocity, Per Cent of Substrate Hydrolyzed in 10 minutes",[7]; Na2 SO4 0 M,4.4 Per Cent
same,"Reaction Velocity, Per Cent of Substrate Hydrolyzed in 10 minutes",[7]; Na2 SO4 0.1 M,5.0 Per Cent
same,"Reaction Velocity, Per Cent of Substrate Hydrolyzed in 10 minutes",[7]; Na2 SO4 0.2 M,4.45 Per Cent
same,"Reaction Velocity, Per Cent of Substrate Hydrolyzed in 10 minutes",[7]; Na2 SO4 0.3 M,4.85 Per Cent
same,"Reaction Velocity, Per Cent of Substrate Hydrolyzed in 10 minutes",[7]; Na2 SO4 0.5 M,5.6 Per Cent
same,1/V,[8]; BenzPheAlaPro 1.0 μM,1.50 pmole^-1 · min .multi
same,V (reaction velocity),[8]; BenzPheAlaPro 1.0 μM,0.67 pmol/min/mL
same,1/V,[8]; BenzPheAlaPro 5.0 μM,0.48 pmole^-1 · min .multi
same,V (reaction velocity),[8]; BenzPheAlaPro 5.0 μM,2.08 pmol/min/mL
same,1/V,[8]; BenzPheAlaPro 10.0 μM,0.24 pmole^-1 · min .multi
same,V (reaction velocity),[8]; BenzPheAlaPro 10.0 μM,4.17 pmol/min/mL
same,1/V,[8]; BenzPheAlaPro 66.7 μM,0.11 pmole^-1 · min .multi
same,V (reaction velocity),[8]; BenzPheAlaPro 66.7 μM,9.09 pmol/min/mL
same,sensitivity of Km to the presence of sulfate,[8]; sulfate present,relatively insensitive to the presence of sulfate
^3 H-HipHisLeu,Km,[9],177 µM
same,sensitivity relative to the assay using ^3 H-HipGlyGly,"[5]; radioactivity of remnant product, HipHisLeu assay sulfate stimulated",approximately 20 times
